This is an account of results in patent US8618066B1 (priority 2003, dated 2013).

In assay [1] the test system is Bacillus atrophaeus (B. atrophaeus). The assay is classed as cell-based.
The test system of assay [2] is Fusarium oxysporum f. sp. lycopersici (F. oxysporum). The assay is classed as cell-based.
The subject of assay [3] is Gram+ & Gram− bacteria, fungi, virus, mammalian/cancer cells. The settings on record: cited from earlier work.
Assay [4] deals with Fusarium oxysporum f. sp. lycopersici.

Entries after “also recorded” stand apart in the source; their conditions may differ. Read-outs that look alike come from different tables or passages of the source. No end group written: not given here.

On to “FRLKFHI [ProteCoat, amino acid polymer consisting essentially of 7 amino acids]”, for which the figures for the “% Growth Inhibition, ProteCoat alone” value in assay [1] and in assay [2] were 0% and 44%, respectively. The Activity entry in assay [3] is “Fungi”.
For the molecule “FRLKFHI [antimicrobial peptidic agent-7]”, the “growth at the lowest peptide concentration tested” value in assay [4] is given as “clear retardation of growth”. Moreover, in assay [4] (48 h, 0.78 mg/ml), the “inhibition at the lowest peptide concentration tested” value is “less than 10%”.
“SEQ ID No. 47: synthetic antifungal peptide, Table 1 (WFKLRF)”: the Activity result in assay [3] is recorded as “Fungi”.
On to “SEQ ID No. 175: synthetic antifungal peptide, Table 1 (WTFRYC)”, for which the Activity result in assay [3] is “Fungi”.
For the molecule “SEQ ID No. 176: synthetic antifungal peptide, Table 1 (CYRFTW)”, the Activity entry in assay [3] is on record as “Fungi”.
As for “SEQ ID No. 177: synthetic antifungal peptide, Table 1 (GYFSYPHGNLF; listed as Glomerella cingulata)”, the Activity entry in assay [3] is reported as “Fungi”.
“SEQ ID No. 178: synthetic antifungal peptide, Table 1 (WHWLQLKPGQPMY; listed as Saccharomyces cerevisiae)”: in assay [3], the Activity entry is “Fungi”.
“SEQ ID No. 179: synthetic antifungal peptide, Table 1 (WHWLSFSKGQPMY; listed as Saccharomyces kluyveri)”: the Activity entry in assay [3] was “Fungi”.
“SEQ ID No. 180: synthetic antifungal peptide, Table 1 (YNLEDHPQGDHPKLQLWHW)”: the Activity entry in assay [3] is given as “Fungi”.
For “SEQ ID No. 181: synthetic antifungal peptide, Table 1 (YNLEPQGPKLQLWHW)”, in assay [3], the Activity result is given as “Fungi”.
Regarding “SEQ ID No. 182: synthetic antifungal peptide, Table 1 (YMPQGPKLQLFHW)”, the Activity result in assay [3] was “Fungi”.
Regarding “SEQ ID No. 183: synthetic antifungal peptide, Table 1 (YMPQGPKLQLWH)”, the Activity result in assay [3] is given as “Fungi”.
Regarding “SEQ ID No. 184: synthetic antifungal peptide, Table 1 (YMPQGPRLNLWHW)”, in assay [3], the Activity entry is reported as “Fungi”.
Turning to “SEQ ID No. 185: synthetic antifungal peptide, Table 1 (MSPSTKNIPAPVAGARAGPIHYCVIM; listed as Magnaporthe grisea)”, the Activity result in assay [3] is recorded as “Fungi”.
In the case of “SEQ ID No. 186: synthetic antifungal peptide, Table 1 (MPSTAASTRVPQTTMNFNGYCVVM; listed as Neurospora crassa)”, in assay [3], the Activity entry was “Fungi”.
For the molecule “SEQ ID No. 187: synthetic antifungal peptide, Table 1 (MPSNTQTSNSSMGVNGYSYCVVM; listed as Cryphonectria parasitica)”, the Activity result in assay [3] is “Fungi”.
“SEQ ID No. 189: synthetic antifungal peptide, Table 1 (QWCRIHGQSCW; listed as Neurospora crassa)”: in assay [3], the Activity entry was “Fungi”.
“SEQ ID No. 190: synthetic antifungal peptide, Table 1 (WHWLQLKPGQPMY; listed as Saccharomyces cerevisiae)”: the Activity result in assay [3] is given as “Fungi”.
On to “SEQ ID No. 191: synthetic antifungal peptide, Table 1 (WCLFHGEGCW; listed as Cryphonectria parasitica)”, for which, in assay [3], the Activity result is listed as “Fungi”.
“SEQ ID No. 195: synthetic antifungal peptide, Table 1 (WCQQKGQPCW; listed as Fusarium graminearum)”: the Activity entry in assay [3] is recorded as “Fungi”.
With “SEQ ID No. 196: synthetic antifungal peptide, Table 1 (WCTWKGQPCW; listed as Fusarium graminearum)”, the Activity entry in assay [3] is “Fungi”.
Turning to “Sativum defensin 1 (psd1): peptide, source Seed of Pea (KTCEHLADTYRGVCFTNASCDDHCKNKAHLISGTCHNWKCFCTQNC; Seed of pea defensin 1 (psd1); listed as Pisum sativum)”, the Activity result in assay [3] is listed as “Fungi”.
Take “Seminalplasmin: peptide, source Bovine (SDEKASPDKHHRFSLSRYAKLANRLANPKLLETFLSKWIGDRGNRSVK; Seminalplasmin; listed as Bos taurus)”: the Activity result in assay [3] is on record as “Gram+ & Gram−, Fungi,; also recorded: Mammalian cells”.
Regarding “Skin peptide tyrosine-tyrosine: peptide, source Two-colored leaf frog”, the Activity entry in assay [3] is listed as “Gram+ & Gram−, Fungi”.
Take “Spingerin: peptide, source Pseudacanthotermes spiniger (HVDKKVADKVLLLKQLRIMRLLTRL; Pseudacanthotermas spiniger; Spingerin)”: the Activity result in assay [3] is “Gram+ & Gram−, Fungi”.
“Tachystatin A: peptide, source Horseshoe Crab (YSRCQLQGFNCVVRSYGLPTIPCCRGLTCRSYFPGSTYGRCQRY; Tachystatin A Peptide; listed as Tachypleus tridentatus)”: in assay [3], the Activity result is recorded as “Gram+ & Gram−, Fungi”.
For “Termicin: peptide, source Pseudacanthotermes spiniger (ACNFQSCWATCQAQHSIYFRRAFCDRSQCKCVFVRG; Pseudacanthotermes spiniger; Termicin)”, the Activity entry in assay [3] was “Gram+, Fungi”.
On to “Thanatin: peptide, source Podisus maculiventris (GSKKPVPIIYCNRRTGKCQRM; listed as Podisus maculiventris)”, for which the Activity entry in assay [3] was “Gram+ & Gram−, Fungi”.
“Tracheal antimicrobial peptide: peptide, source Bovine (NPVSCVRNKGICVPIRCPGSMKQIGTCVGRAVKCCRKK; Tracheal antimicrobial peptide; listed as Bos taurus)”: the Activity entry in assay [3] is on record as “Gram+ & Gram−, Fungi”.
Turning to “Tricholongin: peptide, source Trichoderma longibrachiatum (AGFAAQAAASLAPVAAQQL; Tricholongin; listed as Trichoderma longibrachiatum)”, the Activity entry in assay [3] (classes of organisms/cells the peptide is active against) was “Gram+ & Gram−, Fungi”.
For the molecule “Tritrpticin: peptide, source Synthetic (VRRFPWWWPFLRR; Synthetic Tritrpticin)”, the Activity entry in assay [3] is reported as “Gram+ & Gram−, Fungi”.

B1: Holotricin 3: peptide, source Holotrichia diomphalia (peptide, listed as Holotrichia diomphalia)
chain: YGPGDGHGGGHGGGHGGGHGNGQGGGHGHGPGGGFGGGHGGGHGGGGRGGGGSGGGGSPGHGAGGGYPGGHGGGHHGGYQTHGY
modifications: Holotricin 3
notes: peptide, source Holotrichia diomphalia
Take B1: the Activity result in assay [3] was “Fungi”.

B2: NK-Lysin: peptide, source Sus scrofa (peptide, listed as Amaranthus caudatus)
chain: GYFCESCRKIIQKLEDMVGPQPNEDTVTQAASQVCDKLKILRGLCKKIMRSFLRRISWDILTGKKPQAICVDIKICKE
Regarding B2, in assay [3], the Activity entry is reported as “Gram+ & Gram−, Fungi”.
